Measurements from BindingDB's records for doi:10.7270/Q28S4S3D (n/a, 1997).

Molecular target: T1, E-selectin (Homo sapiens, UniProt P16581)
T1 sequence (P16581 whole entry): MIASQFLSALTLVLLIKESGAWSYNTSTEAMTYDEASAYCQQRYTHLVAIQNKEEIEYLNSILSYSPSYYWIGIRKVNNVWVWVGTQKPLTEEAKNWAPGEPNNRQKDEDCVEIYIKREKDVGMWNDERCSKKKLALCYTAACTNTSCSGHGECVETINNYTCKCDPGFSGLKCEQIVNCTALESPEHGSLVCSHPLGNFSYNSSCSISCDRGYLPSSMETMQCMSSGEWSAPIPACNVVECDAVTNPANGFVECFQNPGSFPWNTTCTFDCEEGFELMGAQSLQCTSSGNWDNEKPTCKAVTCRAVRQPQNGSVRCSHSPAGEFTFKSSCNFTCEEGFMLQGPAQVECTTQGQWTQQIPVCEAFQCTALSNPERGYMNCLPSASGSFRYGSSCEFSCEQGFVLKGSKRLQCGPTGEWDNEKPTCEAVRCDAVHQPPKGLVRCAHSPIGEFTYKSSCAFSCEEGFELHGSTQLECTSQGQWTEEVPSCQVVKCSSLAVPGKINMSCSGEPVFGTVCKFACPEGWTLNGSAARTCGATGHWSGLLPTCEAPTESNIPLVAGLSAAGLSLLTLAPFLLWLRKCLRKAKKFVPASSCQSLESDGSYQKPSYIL
Test: Tested in vitro to inhibit cell adhesion of HL-60 cells to recombinant human soluble Selectin E

`C=CC(=O)NCCCCCCO[C@@H]1O[C@@H](CO)[C@@H](O[C@@H]2O[C@@H](CO)[C@H](O)[C@H](O[C@]3(C(=O)O)C[C@@H](O)[C@@H](NC(C)=O)[C@H]([C@H](O)[C@H](O)CO)O3)[C@@H]2O)[C@H](O[C@@H]2O[C@@H](C)[C@@H](O)[C@H](O)[C@@H]2O)[C@@H]1NC(=O)c1ccc2ccccc2c1` showed an IC50 of 90.2 µM.
`CCO[C@@H]1O[C@@H](CO)[C@@H](O[C@@H]2O[C@@H](CO)[C@H](O)[C@H](O[C@]3(C(=O)O)C[C@@H](O)[C@@H](NC(C)=O)[C@H]([C@H](O)[C@H](O)CO)O3)[C@@H]2O)[C@H](O[C@@H]2O[C@@H](C)[C@@H](O)[C@H](O)[C@@H]2O)[C@@H]1NC(C)=O` was tested, and the IC50 was 1760 µM.
